Reference: paper PMC5218480 (PLoS ONE, 2017)

Tested on: MV-4-11 cells
Test: Gene expression microarray analysis (Affymetrix PrimeView) and GSEA
Type: cell-based, human
Set-up: RFU PODN (11730768_x_at) / Fold change /veh PODN (11730768_x_at) / RFU LINC00158 (11744669_a_at) / Fold change /veh LINC00158 (11744669_a_at) / RFU DUSP10 (11751237_a_at) / Fold change /veh DUSP10 (11751237_a_at) / RFU ID3 (11757404_x_at) / Fold change /veh ID3 (11757404_x_at) / RFU PLEKHG5 (11737974_s_at) / Fold change /veh PLEKHG5 (11737974_s_at) / RFU LRRC4B (11730491_at) / Fold change /veh LRRC4B (11730491_at) / RFU GIMAP4 (11747438_a_at) / Fold change /veh GIMAP4 (11747438_a_at) / RFU KRT8 (11758183_x_at) / Fold change /veh KRT8 (11758183_x_at) / RFU CNN1 (11734310_a_at) / Fold change /veh CNN1 (11734310_a_at) / RFU VPS37D (11726825_at) / Fold change /veh VPS37D (11726825_at) / RFU C10orf10 (11716522_x_at) / Fold change /veh C10orf10 (11716522_x_at) / RFU KIR2DL2 /// KIR2DL4 /// KIR2DL5A /// KIR2DL5B /// KIR2DS1 /// KIR2DS2 /// KIR2DS3 /// KIR2DS4 /// KIR3DL3 /// KIR3DL3 /// KIR3DS1 (11738374_at) / Fold change /veh KIR2DL2 /// KIR2DL4 /// KIR2DL5A /// KIR2DL5B /// KIR2DS1 /// KIR2DS2 /// KIR2DS3 /// KIR2DS4 /// KIR3DL3 /// KIR3DL3 /// KIR3DS1 (11738374_at) / RFU C1QL1 (11718748_at) / Fold change /veh C1QL1 (11718748_at) / RFU TMPRSS4 (11747572_a_at) / Fold change /veh TMPRSS4 (11747572_a_at) / RFU HAMP (11756126_x_at) / Fold change /veh HAMP (11756126_x_at) / RFU RNFT2 (11725882_a_at) / Fold change /veh RNFT2 (11725882_a_at) / RFU NR4A2 (11747474_a_at) / Fold change /veh NR4A2 (11747474_a_at) / RFU ABCC12 (11746883_a_at) / Fold change /veh ABCC12 (11746883_a_at) / RFU TMEM136 (11760407_x_at) / Fold change /veh TMEM136 (11760407_x_at) / RFU CLDN22 /// WWC2 (11732394_at) / Fold change /veh CLDN22 /// WWC2 (11732394_at) / RFU HLA-DPB1 (11760878_x_at) / Fold change /veh HLA-DPB1 (11760878_x_at) / RFU SPINT1 (11716480_a_at) / Fold change /veh SPINT1 (11716480_a_at) / RFU GAP43 (11754022_s_at) / Fold change /veh GAP43 (11754022_s_at) / RFU A4GNT (11735810_at) / Fold change /veh A4GNT (11735810_at) / RFU PRB3 (11715151_x_at) / Fold change /veh PRB3 (11715151_x_at) / RFU TUBB4B (11761932_at) / Fold change /veh TUBB4B (11761932_at) / RFU CAPN14 (11732068_a_at) / Fold change /veh CAPN14 (11732068_a_at) / RFU TMCC2 (11721928_a_at) / Fold change /veh TMCC2 (11721928_a_at) / RFU IRGQ (11745062_a_at) / Fold change /veh IRGQ (11745062_a_at) / RFU FAM174B (11720279_a_at) / Fold change /veh FAM174B (11720279_a_at) / RFU TMPRSS4 (11748680_a_at) / Fold change /veh TMPRSS4 (11748680_a_at) / RFU FAM212B (11763350_a_at) / Fold change /veh FAM212B (11763350_a_at) / RFU PLEKHG5 (11743358_a_at) / Fold change /veh PLEKHG5 (11743358_a_at) / RFU ZSCAN30 (11745921_a_at) / Fold change /veh ZSCAN30 (11745921_a_at) / RFU CMKLR1 (11741424_a_at) / Fold change /veh CMKLR1 (11741424_a_at) / RFU LOC101060620 /// MAPK8IP1 (11723275_at) / Fold change /veh LOC101060620 /// MAPK8IP1 (11723275_at) / RFU SPTSSB (11747773_x_at) / Fold change /veh SPTSSB (11747773_x_at) / RFU PRSS12 (11739890_at) / Fold change /veh PRSS12 (11739890_at) / RFU BIN1 (11741810_x_at) / Fold change /veh BIN1 (11741810_x_at) / RFU WNT11 (11732464_a_at) / Fold change /veh WNT11 (11732464_a_at) / RFU C10orf10 (11716521_a_at) / Fold change /veh C10orf10 (11716521_a_at) / RFU C5orf56 (11738089_at) / Fold change /veh C5orf56 (11738089_at) / RFU CYB561 (11721691_x_at) / Fold change /veh CYB561 (11721691_x_at) / RFU ANKRD19P (11752326_a_at) / Fold change /veh ANKRD19P (11752326_a_at) / RFU OR2T12 /// OR2T33 /// OR2T8 (11738714_s_at) / Fold change /veh OR2T12 /// OR2T33 /// OR2T8 (11738714_s_at) / RFU VCAN (11748164_a_at) / Fold change /veh VCAN (11748164_a_at) / RFU JSRP1 (11732532_at) / Fold change /veh JSRP1 (11732532_at) / RFU KRTAP10-11 (11738290_x_at) / Fold change /veh KRTAP10-11 (11738290_x_at) / RFU MYO3A (11730013_a_at) / Fold change /veh MYO3A (11730013_a_at) / RFU EBF3 (11725865_a_at) / Fold change /veh EBF3 (11725865_a_at) / RFU CAMK2N1 (11719241_x_at) / Fold change /veh CAMK2N1 (11719241_x_at) / RFU C5orf56 (11738088_a_at) / Fold change /veh C5orf56 (11738088_a_at) / RFU OLFML3 (11715873_a_at) / Fold change /veh OLFML3 (11715873_a_at) / RFU LOC100653217 /// NTM (11731650_a_at) / Fold change /veh LOC100653217 /// NTM (11731650_a_at) / RFU MAPK11 (11762145_a_at) / Fold change /veh MAPK11 (11762145_a_at) / RFU FIZ1 (11724087_x_at) / Fold change /veh FIZ1 (11724087_x_at) / RFU OASL (11726364_x_at) / Fold change /veh OASL (11726364_x_at) / RFU SOX15 (11748057_x_at) / Fold change /veh SOX15 (11748057_x_at) / RFU CD79A (11719716_a_at) / Fold change /veh CD79A (11719716_a_at) / RFU HIST1H1D (11736915_at) / Fold change /veh HIST1H1D (11736915_at) / RFU CASKIN2 (11723855_a_at) / Fold change /veh CASKIN2 (11723855_a_at) / RFU LOC730098 (11760151_x_at) / Fold change /veh LOC730098 (11760151_x_at) / RFU OR4N2 (11742367_at) / Fold change /veh OR4N2 (11742367_at) / RFU PRRT2 (11749266_a_at) / Fold change /veh PRRT2 (11749266_a_at) / RFU SNX32 (11753110_a_at) / Fold change /veh SNX32 (11753110_a_at) / RFU CDHR5 (11726645_a_at) / Fold change /veh CDHR5 (11726645_a_at) / RFU RCAN1 (11760418_a_at) / Fold change /veh RCAN1 (11760418_a_at) / RFU FAM167A (11723789_a_at) / Fold change /veh FAM167A (11723789_a_at) / RFU FAM26E (11764081_at) / Fold change /veh FAM26E (11764081_at) / RFU ISYNA1 (11749810_s_at) / Fold change /veh ISYNA1 (11749810_s_at) / RFU ACY1 (11761880_at) / Fold change /veh ACY1 (11761880_at) / RFU 11764098_at / Fold change /veh 11764098_at / RFU SAMD14 (11745864_x_at) / Fold change /veh SAMD14 (11745864_x_at) / RFU NPB (11741838_a_at) / Fold change /veh NPB (11741838_a_at) / RFU TMPRSS6 (11731388_a_at) / Fold change /veh TMPRSS6 (11731388_a_at) / RFU KRTAP10-2 (11738614_at) / Fold change /veh KRTAP10-2 (11738614_at) / RFU ARHGAP8 /// PRR5-ARHGAP8 (11727945_x_at) / Fold change /veh ARHGAP8 /// PRR5-ARHGAP8 (11727945_x_at) / RFU KRTAP5-7 /// NADSYN1 (11734609_at) / Fold change /veh KRTAP5-7 /// NADSYN1 (11734609_at) / RFU RASL12 (11751679_a_at) / Fold change /veh RASL12 (11751679_a_at) / RFU CDKN2B (11736163_a_at) / Fold change /veh CDKN2B (11736163_a_at) / RFU PRF1 (11729649_at) / Fold change /veh PRF1 (11729649_at) / RFU, ZNF638 /// ZNF638-IT1 / Fold change vs veh, ZNF638 /// ZNF638-IT1 / RFU, PANK3 / Fold change vs veh, PANK3 / RFU, SH3YL1 / Fold change vs veh, SH3YL1 / RFU, ZEB2 / Fold change vs veh, ZEB2 / RFU, NRIP1 / Fold change vs veh, NRIP1 / RFU, PTTG1IP / Fold change vs veh, PTTG1IP / RFU, CAPN2 / Fold change vs veh, CAPN2 / RFU, MED14 / Fold change vs veh, MED14 / RFU, SNORA58 / Fold change vs veh, SNORA58 / RFU, C1orf63 / Fold change vs veh, C1orf63 / RFU, LRRFIP1 / Fold change vs veh, LRRFIP1 / RFU, NDUFAF7 / Fold change vs veh, NDUFAF7 / RFU, SLC12A2 / Fold change vs veh, SLC12A2 / RFU, IBTK / Fold change vs veh, IBTK / RFU, ESF1 / Fold change vs veh, ESF1 / Fold change vs veh, TMEM50B / RFU, TAOK1 / Fold change vs veh, TAOK1 / RFU, ACBD3 / Fold change vs veh, ACBD3 / RFU, TMA16 / Fold change vs veh, TMA16 / RFU, RWDD3 / Fold change vs veh, RWDD3 / RFU, BCAT1 / Fold change vs veh, BCAT1 / RFU, EDEM3 / Fold change vs veh, EDEM3 / RFU, TMEM33 / Fold change vs veh, TMEM33 / RFU, WDR75 / Fold change vs veh, WDR75 / RFU, AHCTF1 / Fold change vs veh, AHCTF1 / RFU, TFRC / Fold change vs veh, TFRC / RFU, ZDHHC17 / Fold change vs veh, ZDHHC17 / RFU, NOM1 / Fold change vs veh, NOM1 / RFU, ARL8B / Fold change vs veh, ARL8B / RFU, ZBTB11 / Fold change vs veh, ZBTB11 / RFU, TAMM41 / Fold change vs veh, TAMM41 / RFU, KIAA1704 /// LOC100996395 / Fold change vs veh, KIAA1704 /// LOC100996395 / RFU, ING1 / Fold change vs veh, ING1 / RFU, TRMT61B / Fold change vs veh, TRMT61B / RFU, FUBP3 / Fold change vs veh, FUBP3 / RFU, TP53 / Fold change vs veh, TP53 / RFU, TNKS2 / Fold change vs veh, TNKS2 / RFU, ZFP14 / Fold change vs veh, ZFP14 / RFU, ACTR2 / Fold change vs veh, ACTR2 / RFU, PPP3R1 / Fold change vs veh, PPP3R1 / RFU, PIK3R1 / Fold change vs veh, PIK3R1 / RFU, HNRNPA1 / Fold change vs veh, HNRNPA1 / RFU, RNF170 / Fold change vs veh, RNF170 / RFU, ZNF28 / Fold change vs veh, ZNF28 / RFU, RNGTT / Fold change vs veh, RNGTT / RFU, OGT / Fold change vs veh, OGT / RFU, BRD1 / Fold change vs veh, BRD1 / RFU, MARS / Fold change vs veh, MARS / RFU, ZNF655 / Fold change vs veh, ZNF655 / RFU, FAHD1 / Fold change vs veh, FAHD1 / RFU, BDP1 / Fold change vs veh, BDP1 / RFU, LRRCC1 / Fold change vs veh, LRRCC1 / RFU, ARID1A / Fold change vs veh, ARID1A / RFU, ZNF146 / Fold change vs veh, ZNF146 / RFU, ZNF330 / Fold change vs veh, ZNF330 / RFU, GPN3 / Fold change vs veh, GPN3 / RFU, C9orf123 / Fold change vs veh, C9orf123 / RFU, N4BP2L2 / Fold change vs veh, N4BP2L2 / RFU, ARFIP1 / Fold change vs veh, ARFIP1 / RFU, FAM179B / Fold change vs veh, FAM179B / RFU, BCL10 / Fold change vs veh, BCL10 / RFU, UHRF1BP1L / Fold change vs veh, UHRF1BP1L / RFU, BET1 / Fold change vs veh, BET1 / RFU, CNOT2 / Fold change vs veh, CNOT2 / RFU, ZNF268 / Fold change vs veh, ZNF268 / Fold change vs veh, ZNF507 / RFU, DGCR2 / Fold change vs veh, DGCR2 / RFU, WDSUB1 / Fold change vs veh, WDSUB1 / Fold change vs veh, HSP90B1 /// MIR3652 / RFU, ADSS / Fold change vs veh, ADSS / RFU, GK / Fold change vs veh, GK / RFU, ZNF148 / Fold change vs veh, ZNF148 / RFU, TAF9 / Fold change vs veh, TAF9 / RFU, SLC1A5 / Fold change vs veh, SLC1A5 / RFU, SLMO2 / Fold change vs veh, SLMO2 / RFU, ABCC4 / Fold change vs veh, ABCC4 / RFU, LOC101060439 /// RAP1B / Fold change vs veh, LOC101060439 /// RAP1B / RFU, RFX7 / Fold change vs veh, RFX7 / RFU, GTPBP10 / Fold change vs veh, GTPBP10 / RFU, CNEP1R1 / Fold change vs veh, CNEP1R1 / RFU, BIVM-ERCC5 /// ERCC5 / Fold change vs veh, BIVM-ERCC5 /// ERCC5 / RFU, ILF3 / Fold change vs veh, ILF3 / RFU 11762660_at / Fold change /veh 11762660_at / RFU VCAN (11757783_s_at) / Fold change /veh VCAN (11757783_s_at) / RFU DDX43 (11728927_at) / Fold change /veh DDX43 (11728927_at) / RFU KRT8 (11758188_x_at) / Fold change /veh KRT8 (11758188_x_at) / RFU NKD1 (11759106_at) / Fold change /veh NKD1 (11759106_at) / RFU SRD5A1 (11742802_a_at) / Fold change /veh SRD5A1 (11742802_a_at) / RFU TPSAB1 /// TPSB2 (11721975_s_at) / Fold change /veh TPSAB1 /// TPSB2 (11721975_s_at) / RFU GSTM3 (11746129_a_at) / Fold change /veh GSTM3 (11746129_a_at) / RFU IL23R (11737362_x_at) / Fold change /veh IL23R (11737362_x_at) / RFU TMEM51 (11727254_a_at) / Fold change /veh TMEM51 (11727254_a_at) / RFU PIWIL2 (11732686_x_at) / Fold change /veh PIWIL2 (11732686_x_at) / RFU ORM1 (11744905_x_at) / Fold change /veh ORM1 (11744905_x_at) / RFU CCDC152 (11743942_at) / Fold change /veh CCDC152 (11743942_at) / RFU ECM1 (11717891_a_at) / Fold change /veh ECM1 (11717891_a_at) / RFU IL23R (11748794_a_at) / Fold change /veh IL23R (11748794_a_at) / RFU TNFAIP8L3 (11732012_x_at) / Fold change /veh TNFAIP8L3 (11732012_x_at) / RFU MBOAT4 (11741988_at) / Fold change /veh MBOAT4 (11741988_at) / RFU 11764193_at / Fold change /veh 11764193_at / RFU TMEM53 (11763286_at) / Fold change /veh TMEM53 (11763286_at) / RFU MAGEB2 (11727129_at) / Fold change /veh MAGEB2 (11727129_at) / RFU TMEM200A (11744735_a_at) / Fold change /veh TMEM200A (11744735_a_at) / RFU CCDC152 (11751479_a_at) / Fold change /veh CCDC152 (11751479_a_at) / RFU FAM211A (11726209_a_at) / Fold change /veh FAM211A (11726209_a_at) / RFU RGS16 (11746705_a_at) / Fold change /veh RGS16 (11746705_a_at) / RFU VCAN (11755009_s_at) / Fold change /veh VCAN (11755009_s_at) / RFU RHOB (11743442_s_at) / Fold change /veh RHOB (11743442_s_at) / RFU RGS16 (11720943_a_at) / Fold change /veh RGS16 (11720943_a_at) / RFU RGS16 (11720944_at) / Fold change /veh RGS16 (11720944_at) / RFU, VPS4B / Fold change vs veh, VPS4B / RFU, CREB1 / Fold change vs veh, CREB1 / RFU, DNAJC13 / Fold change vs veh, DNAJC13 / RFU, GNAQ / Fold change vs veh, GNAQ / RFU, CDK5R1 / Fold change vs veh, CDK5R1 / RFU, ZRANB3 / Fold change vs veh, ZRANB3 / RFU, CUL4A / Fold change vs veh, CUL4A / RFU, CCNY / Fold change vs veh, CCNY / RFU, UFL1 / Fold change vs veh, UFL1 / RFU, COG3 / Fold change vs veh, COG3 / RFU, DIAPH2 / Fold change vs veh, DIAPH2 / RFU, SKA2 / Fold change vs veh, SKA2 / RFU, AFF3 / Fold change vs veh, AFF3 / RFU, LMF1 / Fold change vs veh, LMF1 / RFU, IPO11 / Fold change vs veh, IPO11 / RFU, DFFB / Fold change vs veh, DFFB / RFU, FOXP1 / Fold change vs veh, FOXP1 / RFU, CARD8 / Fold change vs veh, CARD8 / RFU, STRN3 / Fold change vs veh, STRN3 / RFU, ADK / Fold change vs veh, ADK / RFU, RASSF2 / Fold change vs veh, RASSF2 / RFU, WIPF1 / Fold change vs veh, WIPF1 / RFU, LARP1B / Fold change vs veh, LARP1B / RFU, RASA1 / Fold change vs veh, RASA1 / RFU, RB1 / Fold change vs veh, RB1 / RFU, PPFIA1 / Fold change vs veh, PPFIA1 / RFU, MAT2A / Fold change vs veh, MAT2A / RFU, CCT5 / Fold change vs veh, CCT5 / RFU, WDR92 / Fold change vs veh, WDR92 / RFU, CUX1 / Fold change vs veh, CUX1 / RFU, TTC7A / Fold change vs veh, TTC7A / RFU, TMEM135 / Fold change vs veh, TMEM135 / RFU, DEPTOR / Fold change vs veh, DEPTOR / RFU, CPM / Fold change vs veh, CPM / RFU, DNAJB6 / Fold change vs veh, DNAJB6 / RFU, CACNA2D3 / Fold change vs veh, CACNA2D3 / RFU, DTX4 / Fold change vs veh, DTX4 / RFU, TFCP2 / Fold change vs veh, TFCP2 / RFU, GMCL1 /// GMCL1P1 / Fold change vs veh, GMCL1 /// GMCL1P1 / RFU, AEBP2 / Fold change vs veh, AEBP2 / RFU, SNHG1 /// SNORD22 /// SNORD25 /// SNORD26 /// SNORD27 /// SNORD28 /// SNORD29 /// SNORD31 / Fold change vs veh, SNHG1 /// SNORD22 /// SNORD25 /// SNORD26 /// SNORD27 /// SNORD28 /// SNORD29 /// SNORD31 / Fold change (Aza/veh), C12orf56 (ProbeSet 11735607_a_at) / Fold change (ACY-1035/veh), C12orf56 (ProbeSet 11735607_a_at) / Fold change (Aza/veh), FGFR1OP (ProbeSet 11751329_s_at) / Fold change (ACY-1035/veh), FGFR1OP (ProbeSet 11751329_s_at) / Fold change (Aza/veh), VPS36 (ProbeSet 11739960_a_at) / Fold change (ACY-1035/veh), VPS36 (ProbeSet 11739960_a_at) / RFU SYPL1 (11715823_x_at) / Fold change /veh SYPL1 (11715823_x_at) / RFU IGFBP7 (11715501_s_at) / Fold change /veh IGFBP7 (11715501_s_at) / RFU REEP3 (11722064_at) / Fold change /veh REEP3 (11722064_at) / RFU IGLL1 (11728026_x_at) / Fold change /veh IGLL1 (11728026_x_at): dose or concentration left out as unconfirmed
Settings: ProbeSet 11717523_x_at; LIST B

Structure (SMILES): Nc1ncn([C@@H]2O[C@H](CO)[C@@H](O)[C@H]2O)c(=O)n1 [azacitidine]
- Fold change vs veh, TMEM50B: 0.85
